Legend:
[1] = tested on: platelet aggregation induced by THR; experiment: Disaggregation over time of THR-induced platelet aggregation; format: cell-based; conditions: FIG. 8; 10 mmol/L, pH 9.5, THR 0.1-0.35 U
Protocol: (§1) Specifically, according to the method similar to Example 1, the amino group-containing compound (1-acetylguanidine) was added to a diluent to treat blood samples in which different concentrations of aggregation inducer were added. Then the samples were tested, in which the test was performed every 5 min after the treatment solution was added to each sample so as to obtain the change of disaggregation rates over time.
Similarly, FIG. 7 and FIG. 8 show curve graphs of platelet aggregation tests induced by THR at different concentrations. The substantially same method as the above-mentioned was used, except that ADP was replaced by THR. The concentrations of THR were 0.1 U, 0.15 U, 0.2 U, 0.23 U, 0.25 U, 0.28 U, 0.30 U and 0.35 U, respectively. […] This was because after a certain concentration of THR was added, soluble fibrinogen converted to […], causing blood coagulation, and platelets were also wrapped by […], resulting in a sharp increase in aggregation rate. […] However, a good disaggregation rate can be achieved when samples were tested immediately after treatment.

[2] = tested on: platelet aggregation induced by COL; experiment: Disaggregation over time of COL-induced platelet aggregation; format: cell-based; conditions: FIG. 10; 10 mmol/L, pH 9.5, COL 0.05-20 mM, except lowest concentration
Protocol: as §1
FIG. 9 and FIG. 10 show curve graphs of platelet aggregation tests induced by COL at different concentrations. The substantially same method as the above-mentioned was used, except that ADP was replaced by COL. The concentrations of COL were 0.05 mM, 0.1 mM, 0.5 mM, 1 mM, 5 mM, 10 mM and 20 mM, respectively.

[3] = tested on: aggregated platelets induced by ADP; experiment: Platelet disaggregation rate of blood samples with ADP-induced platelet aggregation (hematology analyzer, PLT_O)
Protocol: The compounds in Table 1 above were respectively added to a diluent used for a hematology analyzer to prepare blood sample diluents. […] Each of the compounds in Table 1 (at a final concentration 0.01 mol/L) was added to the diluent separately, pH was adjusted to 14, and the osmotic pressure was adjusted to 200 mOsm/L to obtain the treatment solution.
The venous blood of a healthy subject was collected into blood anticoagulant tubes for later use. Two aliquot blood samples (1 ml/sample) were taken. The above-mentioned diluent was added to one of the samples, the resulting solution was mixed evenly, and then the platelet count was detected in a hematology analyzer (Mindray BC-6000Plus) and recorded as: PLT_O (unaggregated). The platelet aggregation inducer ADP (at a final concentration of 0.01 mmol/L) was added to the other sample, and the resulting solution was mixed evenly. Platelets were aggregated 5 min later, at this time the above-mentioned diluent was added, and then the blood containing the aggregated platelets was detected by the hematology analyzer to obtain the platelet count, which was recorded as: PLT_O (aggregated). Another 1 ml of blood sample was taken, the platelet aggregation inducer ADP (at a final concentration of 0.01 mmol/L) was added, and the resulting solution was mixed evenly. The above-mentioned treatment solution was added 5 min later, the resulting solution was mixed evenly, and then the platelet count of the treated blood was detected by the hematology analyzer and was recorded as: PLT_O (disaggregated).

[4] = pKa of the amino group of the compound; conditions: pKa
Text: For the compound having a plurality of amino groups/imino groups, the pKa of amino group described herein refers to the first dissociation constant, that is, pKa of amino group or imino group which firstly dissociates hydrogen ion.

[5] = tested on: platelet aggregation induced by RIS; experiment: Disaggregation over time of RIS-induced platelet aggregation; format: cell-based; conditions: FIG. 12; 10 mmol/L, pH 9.5, RIS 0.15-3 mM
Protocol: as §1
FIG. 11 and FIG. 12 show curve graphs of platelet aggregation tests induced by RIS at different concentrations. The substantially same method as the above-mentioned was used, except that ADP was replaced by RIS. The concentrations of RIS were 0.15 mM, 0.375 mM, 0.75 mM, 1.5 mM and 3 mM, respectively. […] In addition, the disaggregation effect of 1-acetylguanidine can reach the highest immediately for RIS at various concentrations, and remained relatively stable within 10 min. The rapid decrease in the disaggregation rate after 15 min was also because the blood in the samples was coagulated.

platelets = experiment: Induction of platelet aggregation in venous blood by inducers (aggregation rate, impedance channel PLT_I); format: cell-based; conditions: for time until platelet aggregation reached the maximum degree: after inducer was added, different concentrations
Text: Platelet aggregation can be induced by a variety of substances, thereby leading to blood coagulation. In order to investigate the disaggregation effects of amino group-containing compounds on platelet aggregation induced by different factors, in this example, substances, which can induce platelet aggregation, in the blood coagulation test scheme were selected according to the existing platelet aggregation pathways, and a variety of platelet aggregation models were established. The substances included adenosine diphosphate (ADP), thrombin (THR), collagen (COL) and ristocetin (RIS). […] In addition, the amino group-containing compounds can also effectively disaggregate the platelets having different inducements and aggregation degrees in certain concentration ranges and time ranges.
Specifically, several samples of 1 ml of venous blood were taken, and ADP was added to each sample to make the final concentrations be 0.01 mM, 0.25 mM, 0.5 mM and 1 mM respectively. The blood containing aggregated platelets was tested by using a hematology analyzer. The features including numbers, sizes, etc., of various cell particles in the blood were obtained by means of an impedance channel and an optical channel in the hematology analyzer. Normal blood was collected into blood anticoagulant tubes, and then the number of platelet particles detected by the impedance channel in the hematology analyzer was obtained and recorded as (PLT_I). When platelet aggregation occurred, the volume of a particle of the aggregated platelets was much larger than the volume of a single platelet and therefore the accurate count cannot be achieved by means of a corresponding platelet recognition mechanism. As a result, the platelet count was lowered and recorded as PLT_I (aggregated). No amino group-containing compound was added to the diluent of the impedance channel, thus the impedance channel reflected the degree of platelet aggregation in this aggregation model. The platelet count before aggregation was recorded as PLT_I (unaggregated), the platelet count after aggregation was recorded as PLT_I (aggregated), and the aggregation rate=PLT_I (aggregated)/PLT_I (unaggregated). The number of platelet particles tested by means of the optical channel in the hematology analyzer was obtained and recorded as (PLT_O). […] The platelet count before aggregation was recorded as PLT_O (unaggregated), and the platelet count after aggregation was recorded as PLT_O (undisaggregated). […] On the basis of the above principle, the model was established, and the disaggregation effect of the amino group-containing compound was quantitatively determined.

## CC(=O)NC(=N)N [1-acetylguanidine]
[1]
  time after which the disaggregation effect decreased significantly: 1 min
[2]
  time after which the disaggregation effect decreased significantly: 4 to 8 min
[3]; FIG. 3, ambient pH varied 7.0-10, after pH increase
  disaggregation rate: 97.32%
[3]; FIG. 3, ambient pH varied 7.0-10, low end of pH range
  disaggregation rate: 35.23%
[3]; FIG. 6, 10 mmol/L, pH 9.5, ADP 0.01-1 mM
  disaggregation effect on platelet aggregation with various aggregation degrees: remarkable disaggregation effects
[3]; FIG. 14, 50 mmol/L (total for combination, equal parts), ADP 0.1 mmol/L
  disaggregation effect: 62.14%
[3]; Table 4, pH 10.8, method of Example 1
  Platelet disaggregation rate: 97.35%
[3]; Table 5, pH 9.5, method of Example 1
  disaggregation rate: 97.11%
[4]; Example 4
  pKa: 8.33
[4]; Table 4
  pKa: 8.33
[4]; Table 5
  pKa: 8.3
[5]
  time after which the disaggregation rate decreased rapidly: 15 min

## Nc1ncnc2c1ncn2[C@@H]1O[C@H](COP(=O)(O)OP(=O)(O)O)[C@@H](O)[C@H]1O [ADP, adenosine diphosphate]
platelets; FIG. 5, ADP 0.01 mM
  platelet aggregation achieved at most: about 35%
platelets
  time until platelet aggregation reached the maximum degree: ≤ 5 min

## collagen
platelets; FIG. 9, COL at various concentrations (0.05-20 mM)
  degree of platelet aggregation: ~100%

## ristocetin
platelets
  time until platelet aggregation reached the maximum degree: 15 to 20 min

Source: US20230152304A1 (SHENZHEN MINDRAY BIO-MEDICAL ELECTRONICS CO., LTD., priority 2020, published 2023)
